Reference: EP0797567B1, “NOVEL AMINO ACID DERIVATIVES WITH IMPROVED MULTI-DRUG RESISTANCE ACTIVITY” (Vertex Pharmaceuticals Incorporated, priority 1994, dated 1996)

How the values were obtained:
L1210VMDRC.06 = assay: MDR sensitization assay: doxorubicin antiproliferative activity with or without MDR inhibitor (MTT/XTT viability); assay type: cell-based, mouse; conditions: IC50 Dox / IC50 Dox + Inhibitor
Method: To assay the ability of the compounds according to this invention to increase the antiproliferative activity of a drug, cell lines which are known to be resistant to a particular drug may be used. These cell lines include, but are not limited to, the L1210, P388D, CHO and MCF7 cell lines. Alternatively, resistant cell lines may be developed. The cell line is exposed to the drug to which it is resistant, or to the test compound; cell viability is then measured and compared to the viability of cells which are exposed to the drug in the presence of the test compound. […]
Multi-drug resistance assays were conducted by plating cells (2 x 10^3, 1 x 10^4, or 5 x 10^4 cells/well) in 96 well microtiter plates and exposing them to a concentration range of doxorubicin ([…]) as described in Ford et al., Cancer Res., Vol. 50, 1748-1756. […] After culture for 3 days, the viability of cells was quantitated using MTT (Mossman) or XTT dyes to assess mitochondrial function. […]
Results were determined by comparison of the IC50 for doxorubicin alone to the IC50 for doxorubicin+ MDR inhibitor. An MDR ratio was calculated (IC50 Dox/ IC50 Dox + Inhibitor) and the integer value used for comparison of compound potencies.

HL60/ADR cells = assay: Inhibition of MRP-mediated MDR: doxorubicin with or without compound, XTT viability; assay type: cell-based; conditions: Homo sapiens, 72 h, doxorubicin alone, no MDR inhibitor, control run of the compound in the same table row, 3 days, read-out: IC50 Dox alone
Method: We plated HL60/ADR cells in 96 well microtiter plates (4 x 10^4 cells/well). […] After culturing the cells for 3 days, their viability was quantitated using the XTT dye method to assess mitochondrial function. […] IC50 values are expressed in nM. In all assays the intrinsic antiproliferative or cytotoxic activity of the MDR inhibitors was also determined for HL60/ADR cells.

Compound | MDR Ratio 0.5 µM (L1210VMDRC.06; 0.5 µM compound) | MDR Ratio 1.0 µM (L1210VMDRC.06; 1.0 µM compound) | IC50 (HL60/ADR cells) [µM]
(S)-N-Benzyl-2-(methyl-(2-oxo-2-(3,4,5-trimethoxyphenyl)acetyl)amino)-3-phenyl-N-(3-(pyridin-4-yl)-1-(2-(pyridin-4-yl)-propyl)butyl)propionamide [Compound 12] | 3.2 | >9.2 | –
COc1cccc2c1C(=O)c1c(O)c3c(c(O)c1C2=O)C[C@@](O)(C(=O)CO)C[C@@H]3O[C@H]1C[C@H](N)[C@H](O)[C@H](C)O1 [Dox, doxorubicin] | – | – | 5
